Assays:
[1] = tested on: gram-positive microorganisms in the biofilm; test: Antibacterial activity against cells immersed in a biofilm matrix (CFU, drop plate); format: cell-based
Description: To determine the effectiveness of the antibiotic against bacteria in […], bacteria were grown in Basal medium for 3 days at a temperature of 37° C. without swinging to obtain a dense biofilm [A. R Kayumov, Khakimullina E., Sharafutdinov I, Trizna E., Latypova L., Lien Thi, Margulis A., Bogachev M, Kurbangalieva A. Inhibition of biofilm formation in Bacillus subtilis by new halogenated furanoses. J. Antibiotics.—2014.—V. 68.—No 5.—P. 297-301.]. Then the biofilm was washed with a sterile 0.9% NaCl solution and fresh sterile medium was poured. Antiseptics were added to concentrations (1-16)×MBC (minimum bactericidal concentration) and incubated for 24 hours. Then the culture fluid was removed from the wells, washed once with 0.9% NaCl solution to remove non-adherent cells, and cell viability in biofilms was evaluated by counting CFU by Drop plate analysis [B. Herigstad, M Hamilton, J. Heersink How to optimize the drop plate method for enumerating bacteria. J Microbiol Methods.—2001.—V. 44.—P. 121-129]. To do this, the biofilm was mechanically removed from the surface and homogenized in 0.9% NaCl by pipetting and ultrasonic treatment. Then, serial 10-fold dilutions of the bacterial suspension in 0.9% NaCl were prepared, and 5 μI of each suspension were transferred to plates with dense nutrient medium. CFU was counted from drops containing 5-10 colonies.
The results of the study of antimicrobial activity against cells of the studied strains immersed in the biofilm matrix, in comparison with miramistin and benzalkonium chloride, are presented in FIGS. 1 and 2.

Asp. fumigates = test: Sensitivity of microscopic fungi in solution (colonies after exposure); format: cell-based
Description: (§1) For the preparation of inoculum, were respectively used pure (2-5) days cultures of yeast and mycelial fungi, grown on Saburo's dense nutrient broth. Inoculum for plating was prepared in different ways, depending on the type of fungi. Thus, yeast crops (C. albicans) were prepared by washing the culture from an agar stroke. Cultures of mycelial fungi (Rh. oryzae, Asp. fumigatus) were pre-degraded in a pounder. A suspension of microorganisms was prepared in a sterile isotonic sodium chloride solution, bringing the inoculum density to 5 UNITS (GISK [State Research Institute of Standardization and Control] named after L. A. Tarasevich) or according to the McFarland standard 1 UNIT with a concentration of at least 1×10^6 CFU/ml, considering that the size of the fungal elements is approximately 10 times the size of bacteria (this provided the possibility of creating a mixture of biocide with suspension, the concentration of microorganisms of the order of 1×10^5 CFU/ml).
(§2) Solutions of compound I, miramistin, and benzalkonium chloride in working concentrations (0.1%, 0.2%, 0.3%) were poured into sterile 0.9 ml tubes. 0.1 ml of microbial suspension was added to test tubes with disinfectant solutions and mixed by shaking for several seconds. The exposition lasted for 1, 5, and 15 minutes. After required temporary exposure for action of the disinfectant, 0.5 ml of the neutralizer solution was added and mixed by shaking.
(§3) Then, 0.1 ml of the mixture was inoculated on a dense nutrient medium and the plates with inoculate were placed in a thermostat with a temperature of 27° C. for (2-4) days for yeast and (5-7) days for mycelial fungi, respectively.
(§4) After the time required for the cultivation of microorganisms of this species, the results were counted according to the number of colonies grown on the Petri dish. In the absence of growth, the time for culturing microorganisms was increased by a factor of 2. The grown colonies were subjected to microscopy.
(§5) The tested substances were studied on clinical and archival strains of yeast and mycelial fungi. As comparison drugs, drugs commonly used in clinical practice were used: miramistin and benzalconium chloride. After the required exposure time for action of the disinfectant, a series of 0.1 ml mixture was aseptically plated on the surface of a dense nutrient medium in Petri dishes. After the time of cultivation of microorganisms, the results were counted according to the number of colonies grown on the Petri dish.

C. albicans = test: as above; format: cell-based
Description: as §1, §2, §3, §4, §5

mice = details: intragastric administration on mice; literature and safety data sheets; cited from earlier work

CCCCCCCCCCCC[N+](C)(C)Cc1cnc(C[N+](C)(C)CCCCCCCCCCCC)c2c1COC(CC)O2 (centres unmarked) [Compound I, 5,8-(Bis(methylene (N, N-dimethyl-N-dodecylammonium))-2-ethyl-4H-[1,3]dioxino [4,5-c]pyridiniumdichloride]
higher activity compared to miramistin and benzalkonium chloride ([1]; same decrease of CFU at lower excess of MBC): 2 fold
Number of colonies grown in a Petri dish (Asp. fumigates; exposure 5 min, 0.1% solution): 1
Number of colonies grown in a Petri dish (C. albicans; exposure 1 min, 0.1% solution): 3
Number of colonies grown in a Petri dish (C. albicans; exposure 5 min, 0.1% solution): 1

CCCCCCCCCCCCCC(=O)NCCC[N+](C)(C)Cc1ccccc1.O.[Cl-] [Miramistin, benzyldimethyl [3-(myristoylamino)propyl]-ammonium chloride monohydrate]
less active than benzalkonium chloride [1]: 2 times
Number of colonies grown in a Petri dish (Asp. fumigates; exposure 1 min, 0.1% solution): 20
Number of colonies grown in a Petri dish (Asp. fumigates; exposure 1 min, 0.2% solution): 10
Number of colonies grown in a Petri dish (Asp. fumigates; exposure 5 min, 0.1% solution): 12
Number of colonies grown in a Petri dish (Asp. fumigates; exposure 15 min, 0.1% solution): 2
Number of colonies grown in a Petri dish (C. albicans; exposure 1 min, 0.1% solution): 12
Number of colonies grown in a Petri dish (C. albicans; exposure 1 min, 0.2% solution): 5
Number of colonies grown in a Petri dish (C. albicans; exposure 5 min, 0.1% solution): 7
LD50 (mice): 1000 mg/kg

alkyldimethyl(phenylmethyl) ammonium chloride [Benzalconium chloride]
LD50 (mice): 150 mg/kg
